This assay deals with T1, Serine/threonine-protein kinase 4 (Human, UniProt Q13043).
T1 sequence (Q13043 whole entry): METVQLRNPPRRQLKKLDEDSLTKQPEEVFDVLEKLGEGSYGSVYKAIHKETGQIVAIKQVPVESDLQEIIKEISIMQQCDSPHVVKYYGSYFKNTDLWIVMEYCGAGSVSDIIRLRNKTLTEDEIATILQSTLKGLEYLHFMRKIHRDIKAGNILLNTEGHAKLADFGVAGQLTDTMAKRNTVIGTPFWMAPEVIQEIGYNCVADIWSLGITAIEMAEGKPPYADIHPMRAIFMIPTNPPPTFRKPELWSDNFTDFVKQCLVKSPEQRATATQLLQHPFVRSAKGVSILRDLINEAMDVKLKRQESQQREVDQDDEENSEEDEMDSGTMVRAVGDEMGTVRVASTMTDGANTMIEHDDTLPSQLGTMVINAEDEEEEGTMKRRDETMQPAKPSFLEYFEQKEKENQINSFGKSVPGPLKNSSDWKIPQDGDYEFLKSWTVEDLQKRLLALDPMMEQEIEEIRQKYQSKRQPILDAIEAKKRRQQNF
Put plainly: Biochemical Assay. On the procedure:
Biochemical IC50s were measured at Invitrogen using Z-lyte technology. Briefly, for STK4, the 2×STK4 (MST1)/Ser/Thr 07 mixture was prepared in 50 mM HEPES pH 7.5, 0.01% BRIJ35, 10 mM MgCl2, 1 mM EGTA. The final 10 μL Kinase Reaction consisted of 6.25-160 ng STK4 (MST1) and 2 μM Ser/Thr 07 in 50 mM HEPES pH 7.5, 0.01% BRIJ-35, 10 mM MgCl2, 1 mM EGTA. After the 1 hour Kinase Reaction incubation, 5 μL of a 1:100000 dilution of Development Reagent A was added. Compounds were screened in a 10 point titration with 3-fold serial dilutions starting at a concentration of 10 μM. The biochemical IC50s against other STK family members were measured similarly. The ATP concentration used matched the Km for each kinase.

Molecules are shown by their SMILES.

As usually defined, the IC50 is the concentration that gives 50% inhibition. A higher IC50 goes with weaker potency.

`Nc1ncc(-c2cccc3sccc23)cc1-c1ccc2c(c1)CCNC2=O` [US10710978, Compound I-15] showed a half-inhibitory concentration (IC50) of under 40 nM.
The result for `Cc1cc(S(=O)(=O)N(C)C2CC2)ccc1-c1cnc(N)c(-c2ccc3c(c2)CCNC3=O)c1` [US10710978, Compound I-46] reads under 40 nM.

Values taken from BindingDB's records for patent US10710978 (DANA-FARBER CANCER INSTITUTE, INC.; FONDAZIONE CENTRO SAN …, 2020).
